Experimental data reported in patent US9708247B2, “Modulators of the eIF2alpha pathway” (The Regents of the University of California, priority 2013, dated 2017).

Columns and labels:
[1] = tested on: eIF2α (p-Ser51); test: AlphaScreen SureFire eIF2α(p-Ser51) assay in U2OS cells; format: cell-based, human; settings: U2OS
Experimental: U2OS cells were plated on 96 well plates and left to recover overnight. Cells were treated with either with 2 μg/ml tunicamycin or 100 nM thapsigargin in the presence or absence of 100 nM ISRIB or with ISRIB alone for the indicated and the level of eIF2α phosphorylation was determined using the AlphaScreen SureFire eIF2α(p-Ser51) Assay kit (Perkin Elmer) following the manufacturer's recommendations. Plates were read in an Envision Xcite Multilabel Reader using the standard Alpha Screen settings.

[2] = tested on: CHOP; test: CHOP immunofluorescence in U2OS cells; format: cell-based, human; settings: 100 nM thapsigargin 2 h, 200 nM ISRIB
Experimental: FIGS. 4A-4B. ISRIB impairs induction of the transcriptional network controlled by ATF4; (FIG. 4A) ER-stress dependent induction of CHOP and GADD34 mRNA is impaired in cells treated with ISRIB; qPCR analysis of total RNA extracted from U2OS cells treated with 2 μg/ml of tunicamycin in the presence or absence of 200 nM ISRIB for the indicated times; mRNA levels for each sample were normalized to GAPDH (N=4); P values are derived from a one tail Student's t-test for unpaired samples; statistical significance: CHOP, P=0.0006 (*); GADD34, P=0.0008 (*); (FIG. 4B) ISRIB blocks CHOP production during ER stress; an immunofluorescence analysis of U2OS cells treated with 100 nM thapsigargin for 2 h in the presence or absence of 200 nM ISRIB is shown; a secondary Alexa Dye 488 anti-mouse antibody and rhodamine-phalloidin were used to visualize CHOP and actin, respectively.
U2OS cells were seeded on Slide Flasks (Thermo Scientific) 18 h prior to processing for immunofluorescence. Cells (60% confluent) were fixed with 4% paraformaldehyde in PBS for 15 min. The cells were then rinsed 3 times with PBS and permeabilized with 0.3% Triton X-100. The fixed cells were rinsed 3 times with PBS and blocked for 1 h at room temperature in PBS supplemented with 0.1% Triton X-100 and 5% normal goat serum. […]

[3] = tested on: HEK293T cells; format: cell-based, human; settings: 2 μg/mL tunicamycin plus 200 nM ISRIB, 24 h
Excerpt: (§1) FIGS. 5A-5D. […]

[4] = tested on: caspase 3/7; test: Caspase 3/7 activation in Hela cells; format: cell-based, human; settings: tunicamycin or thapsigargin plus 25 nM ISRIB
Experimental: as §1
Hela cells were plated in 96 well Corning plates at 0.4×10^4 cells/well 24 hours prior to imaging. […] In order to quantify the total number of cells, Vybrant DyeCycle Green staining solution (1 μM) was added directly to the well immediately after the final Caspase-3/7 scan and incubated for 1 h prior to acquiring final images. Data was analyzed using IncuCyte analysis software.

[5] = tested on: hippocampal-dependent memory; test: Trace fear conditioning after surgery (postsurgical cognitive dysfunction); format: in vivo, mouse; settings: mice, perioperative administration, postoperative day three
Excerpt: FIG. 26. Experimental design for measuring postsurgical cognitive dysfunction and effects of ISRIB on cognitive function; measurement of memory is a behavioral test using trace fear conditioning (TFC), which aims to establish a permanent memory in animals by using sensorial information; associative learning is presented with a neutral conditioning stimulus, paired with an aversive unconditioning stimulus (e.g. shock); freezing by the animal corresponds to the ability of the animal to retain memory from the context in which it has been trained. Separate cohorts of animals were used to assess inflammatory status 24 h after surgery. Downwards arrows represent injection points. FIG. 27. […] Control animals were given vehicle solution.

[6] = tested on: IL-6; test: Serum IL-6 after surgery (ELISA); format: in vivo, mouse; settings: mice, perioperative administration, 24 h after surgery
Excerpt: FIG. 26. Experimental design for measuring postsurgical cognitive dysfunction and effects of ISRIB on cognitive function; measurement of memory is a behavioral test using trace fear conditioning (TFC), which aims to establish a permanent memory in animals by using sensorial information; associative learning is presented with a neutral conditioning stimulus, paired with an aversive unconditioning stimulus (e.g. shock); freezing by the animal corresponds to the ability of the animal to retain memory from the context in which it has been trained. Separate cohorts of animals were used to assess inflammatory status 24 h after surgery. Downwards arrows represent injection points.
FIG. 28. […] Levels were measured using an enzyme-linked immunosorbent kit.

What does the source list for `O=C(COc1ccc(Cl)cc1)NC1CCC(NC(=O)COc2ccc(Cl)cc2)CC1` (stereo not shown) [ISRIB]?
effect on eIF2α phosphorylation, compound alone ([1]; no ER stress, 120 min): no effect on eIF2α phosphorylation; effect on eIF2α phosphorylation upon ER stress ([1]; tunicamycin or thapsigargin plus 100 nM ISRIB): did not block eIF2α phosphorylation; CHOP accumulation after induction of ER stress [2]: no CHOP accumulation; cell survival of ER-stressed cells (colony number and size) [3]: strong synergistic effect; activity of caspases 3 and/or 7 [4]: significantly induced; memory impairment after surgery (freezing) [5]: mitigated memory impairment after surgery; serum IL-6 increase after surgery [6]: abrogated the increase in IL6
